The values that follow come from patent US6486185B1, “3-heteroarylidene-2-indolinone protein kinase inhibitors” (Sugen, Inc., priority 1997, dated 2002).

The IC50 is the midpoint of a concentration-inhibition curve. A low value points to greater potency in that assay.

Structures are written as SMILES.

In this experiment the target is T1, FLK-1R (Mus musculus, UniProt P35918).
T1 construct: expressed in transfected cells; host or cells: NIH3T3 C7#3
T1 sequence (P35918 20-1345): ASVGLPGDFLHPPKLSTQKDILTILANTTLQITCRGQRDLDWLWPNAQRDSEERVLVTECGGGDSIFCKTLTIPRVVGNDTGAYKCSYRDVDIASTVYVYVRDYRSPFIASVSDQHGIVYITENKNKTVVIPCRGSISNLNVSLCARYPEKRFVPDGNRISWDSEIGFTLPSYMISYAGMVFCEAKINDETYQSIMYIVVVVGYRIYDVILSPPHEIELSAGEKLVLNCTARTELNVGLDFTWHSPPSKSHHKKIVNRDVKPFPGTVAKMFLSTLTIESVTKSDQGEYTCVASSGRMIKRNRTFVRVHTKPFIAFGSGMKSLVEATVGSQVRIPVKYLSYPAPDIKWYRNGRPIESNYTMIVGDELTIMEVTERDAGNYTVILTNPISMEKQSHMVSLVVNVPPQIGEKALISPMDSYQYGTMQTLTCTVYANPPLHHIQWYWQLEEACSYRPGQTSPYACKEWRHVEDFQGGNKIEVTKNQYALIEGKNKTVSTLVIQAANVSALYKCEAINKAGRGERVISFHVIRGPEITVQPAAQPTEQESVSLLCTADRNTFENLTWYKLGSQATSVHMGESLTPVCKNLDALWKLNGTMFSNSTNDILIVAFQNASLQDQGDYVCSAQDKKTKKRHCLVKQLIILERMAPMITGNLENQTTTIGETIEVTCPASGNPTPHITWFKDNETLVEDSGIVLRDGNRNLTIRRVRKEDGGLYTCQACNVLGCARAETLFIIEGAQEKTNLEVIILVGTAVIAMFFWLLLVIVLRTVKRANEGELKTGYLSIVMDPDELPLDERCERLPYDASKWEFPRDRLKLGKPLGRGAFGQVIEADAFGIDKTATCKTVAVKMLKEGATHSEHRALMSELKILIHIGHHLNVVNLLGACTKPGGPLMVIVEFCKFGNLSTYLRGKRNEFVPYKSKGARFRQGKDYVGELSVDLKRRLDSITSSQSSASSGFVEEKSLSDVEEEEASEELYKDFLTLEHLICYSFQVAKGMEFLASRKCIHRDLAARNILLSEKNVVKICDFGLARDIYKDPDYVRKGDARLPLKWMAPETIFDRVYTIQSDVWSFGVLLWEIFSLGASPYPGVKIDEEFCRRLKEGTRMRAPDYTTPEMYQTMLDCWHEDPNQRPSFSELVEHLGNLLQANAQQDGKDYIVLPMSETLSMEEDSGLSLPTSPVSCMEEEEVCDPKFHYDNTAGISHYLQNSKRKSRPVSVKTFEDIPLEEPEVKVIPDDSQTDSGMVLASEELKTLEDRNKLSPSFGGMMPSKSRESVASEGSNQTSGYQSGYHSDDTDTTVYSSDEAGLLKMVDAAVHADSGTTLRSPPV
In words: FLK-1 receptor ELISA in cells engineered to express Flk-1. Type of experiment: cell-based. As to conditions: 50% inhibition of PTK activity over control. As for the experimental part:
The cellular/catalytic assays described herein are performed in an ELISA format. The general procedure is a follows: a compound is introduced to cells expressing the test kinase, either naturally or recombinantly, for some period of time after which, if the test kinase is a receptor, a ligand known to activate the receptor's activity is added. The cells are lysed and the lysate is transferred to the wells of an ELISA plate previously coated with a specific antibody recognizing the substrate of the enzymatic phosphorylation reaction. Non-substrate components of the cell lysate are washed away and the amount of phosphorylation on the substrate is detected with an antibody specifically recognizing phosphotyrosine compared with control cells that were not contacted with a test compound.
An ELISA assay is conducted to measure the kinase activity of the FLK-1 receptor and more specifically, the inhibition or activation of TK activity on the FLK-1 receptor. Specifically, the following assay can be conducted to measure kinase activity of the FLK-1 receptor in cells genetically engineered to express Flk-1.
The following reagents and supplies are used:
a. Corning 96-well ELISA plates (Corning Catalog No. 25805-96);
b. Cappel goat anti-rabbit IgG (catalog no. 55641);
c. PBS (Gibco Catalog No. 450-1300EB);
d. TBSW Buffer (50 mM Tris (pH 7.2), 150 mM NaCl and 0.1% Tween-20);
e. Ethanolamine stock (10% ethanolamine (pH 7.0), stored at 4° C.);
f. HNTG buffer (20 mM HEPES buffer (pH 7.5), 150 mM NaCl, 0.2% Triton X-100, and 10% glycerol);
g. EDTA (0.5 M (pH 7.0) as a 100×stock);
h. Sodium orthovanadate (0.5 M as a 100×stock);
i. Sodium pyrophosphate (0.2 M as a 100×stock);
j. NUNC 96 well V bottom polypropylene plates (Applied Scientific Catalog No. AS-72092);
k. NIH3T3 C7#3 Cells (FLK-1 expressing cells)
l. DMEM with 1×high glucose L-Glutamine (catalog No. 11965-050);
n. L-glutamine, Gibco (catalog no. 25030-016);
o. VEGF, PeproTech, Inc. (catalog no. 100-20) (kept as 1 μg/100 μL stock in Milli-Q dH2O and stored at −20° C.;
p. Affinity purified anti-FLK-1 antiserum;
q. UB40 monoclonal antibody specific for phosphotyrosine (see, Fendley, et al., 1990, Cancer Research 50:1550-1558);
r. EIA grade Goat anti-mouse IgG-POD (BioRad catalog no. 172-1011);
s. 2,2-azino-bis(3-ethylbenz-thiazoline-6-sulfonic acid (ABTS) solution (100 mM citric acid (anhydrous), 250 mM Na2HPO4 (pH 4.0), 0.5 mg/mL ABTS (Sigma catalog no. A-1888)), solution should be stored in dark at 4° C. until ready for use;
t. H2O2 (30% solution) (Fisher catalog no. H325);
u. ABTS/H2O2 (15 mL ABTS solution, 2 μL H2O2) prepared 5 minutes before use and left at room temperature;
v. 0.2 M HCl stock in H2O;
w. dimethylsulfoxide (100%)(Sigma Catalog No. D-8418); and
y. Trypsin-EDTA (Gibco BRL Catalog No. 25200-049).
The following protocol can be used for conducting the assay:
1. Coat Corning 96-well ELISA plates with 1.0 μg per well Cappel Anti-rabbit IgG antibody in 0.1 M Na2CO3 pH 9.6. Bring final volume to 150 μL per well. Coat plates overnight at 4° C. Plates can be kept up to two weeks when stored at 4° C.
2. Grow cells in Growth media(DMEM, supplemented with 2.0 mM L-Glutamine, 10% FBS) in suitable culture dishes until confluent at 37° C., 5% CO2.
3. Harvest cells by trypsinization and seed in Corning 25850 polystyrene 96-well round bottom cell plates, 25.000 cells/well in 200 μL of growth media.
4. Grow cells at least one day at 37° C., 5% CO2.
5. Wash cells with D-PBS 1×.
6. Add 200 μL/well of starvation media (DMEM, 2.0 mM 1-Glutamine, 0.1% FBS). Incubate overnight at 37° C., 5% CO2.
7. Dilute Compounds 1:20 in polypropylene 96 well plates using starvation media. Dilute dimethylsulfoxide 1:20 for use in control wells.
8. Remove starvation media from 96 well cell culture plates and add 162 μL of fresh starvation media to each well.
9. […]
(In general: In an ELISA, binding on a coated surface is turned into a signal by an enzyme label.)
`CCOC(=O)c1c(C)[nH]c(C=C2C(=O)Nc3ccc(NC(=O)c4ccc(C(=O)OC)cc4)cc32)c1C` [3-(2,4-dimethyl-3-ethoxycarbonylpyrrol-5-methylidenyl)-5-(4-methoxycarbonylbenzamido)-2-indolinone] showed an IC50 greater than 10 µM. In turn, `CCOC(=O)c1c(C)[nH]c(C=C2C(=O)Nc3ccc(Br)cc32)c1C` [3-(2,4-dimethyl-3-ethoxycarbonylpyrrol-5-methylidenyl)-5-bromo-2-indolinone] returned an IC50 of 4.2 µM. For the compound `CC(=O)c1[nH]c(C=C2C(=O)Nc3ccccc32)c(C)c1C` [3-(2-acetyl-3,4-dimethylpyrrol-5-methylidenyl)-2-indolinone], inhibition was half-maximal at 23.8 µM (IC50). In turn, `COC(=O)Cc1c(Cl)[nH]c(C=C2C(=O)Nc3ccccc32)c1C(=O)OC` [3-(2-chloro-4-methoxycarbonyl-3-methoxycarbonylmethylpyrrol-5-methylidenyl)-2-indolinone] returned an IC50 greater than 50 µM. For the compound `CCOC(=O)c1[nH]c(C=C2C(=O)Nc3ccccc32)c(C(C)=O)c1C` [3-(4-acetyl-2-ethoxycarbonyl-3-methylpyrrol-5-methylidenyl)-2-indolinone], the IC50 is greater than 10 µM. The result for `CCOC(=O)c1c[nH]c(C=C2C(=O)Nc3ccccc32)c1C` [3-(4-ethoxycarbonyl-3-methylpyrrol-2-methylidenyl)-2-indolinone] reads 0.2 µM; that for `CCOC(=O)CCc1c(C(=O)OCC)[nH]c(C=C2C(=O)Nc3ccccc32)c1CC(=O)OCC` [3-[2-ethoxycarbonyl-3-(2-ethoxycarbonylethyl)-4-ethoxycarbonylmethyl)pyrrol-5-methylidenyl)-2-indolinone], greater than 10 µM.

`Cc1c[nH]c(C=C2C(=O)Nc3ccccc32)c1CCC(=O)O` [3-[3-(2-carboxyethyl-4-methylpyrrol-2-methylidenyl]-2-indolinone] gave an IC50 of 0.4 µM. The compound `COC(=O)CCc1c[nH]c(C=C2C(=O)Nc3cc(OC)c(OC)cc32)c1C` [3-[4-(2-methoxycarbonylethyl)-3-methylpyrrol-2-methylidenyl]-5,6-dimethoxy-2-indolinone] showed an IC50 of 36 µM. The result for `COC(=O)CCc1c[nH]c(C=C2C(=O)Nc3ccccc32)c1C` [3-[4-(2-methoxycarbonylethyl-3-methylpyrrol-2-methylidenyl]-2-indolinone] reads 1.1 µM.
